Experiment: Dissociation constant, pKa of the compound
Assay type: physicochemical

Structure (SMILES) | pKa
O=C(c1ccc(NC2=NCCN2)cc1)c1ccc(NC2=NCCN2)cc1 | 8.6
c1cc(Nc2ccc(NC3=NCCN3)cc2)ccc1NC1=NCCN1 | 9.9
N=C(N)Nc1ccc(Nc2ccc(NC(=N)N)cc2)cc1 | 10.8
c1cc(NC2=NCCN2)ccc1Cc1ccc(NC2=NCCN2)cc1 | 9.8
COc1cc2nc(N3CCN(C(=O)C4COc5ccccc5O4)CC3)nc(N)c2cc1OC (centres undefined) [DOXAZOSIN] | 6.9
CNC[C@H](O)c1ccc(O)c(O)c1 [EPINEPHRINE] | 8.59
N=C(N)Nc1ccc(C(=O)c2ccc(NC(=N)N)cc2)cc1 | 9.4
N=C(N)Nc1ccc(Cc2ccc(NC(=N)N)cc2)cc1 | 10.5
NC[C@H](O)c1ccc(O)c(O)c1 [NOREPINEPHRINE] | 8.58
